From ChEMBL document CHEMBL1201862, “PubChem BioAssay data set” (2004) come the findings set out here.

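Five compound concentrations were applied to cells in 96-well plates for 48 hours; endpoints were derived by simple linear interpolation of the resulting dose-response curve. Here, GI50 denotes the concentration required for 50% inhibition of growth.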 Active and inactive are the calls of the source. No stated cut-off is given here; in the data, active = GI50 up to about 1.1 µM and inactive = higher.

Experiment in all cases: growth of human tumour cells (NCI), 48 h
For test [1], the system named is 786-0.
In test [2] the test system is A498.
Test [3] has as its system ACHN.
Test [4] has as its system CCRF-CEM.
Test [5] has as its system EKVX.
Test [6] deals with HCT-116.
Test [7] has as its system Hs-578T.
In test [8] the test system is K562.
Test [9] has as its system MDA-MB-231.
Test [10] has as its system NCI-H460.
Test [11] has as its system OVCAR-4.
Test [12] relates to OVCAR-5.
In test [13] the test system is RPMI-8226.
The subject of test [14] is SF-295.
Test [15] has as its system SF-539.
Test [16] relates to SN12C.
Test [17] deals with SNB-19.
The subject of test [18] is SNB-75.
Test [19] concerns SW-620.
The subject of test [20] is U-251.

On to `O=c1sc2c(s1)-c1sc(=O)sc1SS2`, for which the GI50 in test [1] is > 100 µM (inactive); in test [2] it was > 42.9 µM (inactive); in test [3] it was > 100 µM (inactive); in [4], > 54.8 µM (inactive); in test [5], > 76.2 µM (inactive); in test [6], > 100 µM (inactive). The GI50 was 81.7 µM (inactive) in test [7]; 55.5 µM (inactive) in test [8]; > 100 µM (inactive) in test [9]; > 100 µM (inactive) in test [10]; > 100 µM (inactive) in test [11]; 34.1 µM (inactive) in [12]. The GI50 in [13] was > 100 µM (inactive); in test [14], > 100 µM (inactive); in test [15], 41.5 µM (inactive); in [16], > 100 µM (inactive); in test [17] it was > 100 µM (inactive); in test [18] it was 7.71 µM (inactive). Besides, the GI50 in test [19] was > 100 µM (inactive); in [20], > 31.6 µM (inactive).
`COC1OC(Cc2nnc(C)o2)C(OCc2ccccc2)C(OCc2ccccc2)C1OCc1ccccc1` (stereo not given): the GI50 in test [1] is 40.6 µM (inactive); in test [2], 50.9 µM (inactive); in test [3], 26.6 µM (inactive); in [4], 21.7 µM (inactive); in test [5], 12.7 µM (inactive); in [6], 37.4 µM (inactive). The GI50 in test [7] is 43 µM (inactive); in test [8] it was 20.9 µM (inactive); in test [9], 36.1 µM (inactive); in test [10], 26.4 µM (inactive); in [11] it was 41.4 µM (inactive); in test [12] it was 41.2 µM (inactive). For the same molecule, the GI50 was 32.4 µM (inactive) in [13]; 18.9 µM (inactive) in test [14]; 38.3 µM (inactive) in test [15]; 28.3 µM (inactive) in test [16]; 57.8 µM (inactive) in test [17]; 74.3 µM (inactive) in [18]. In addition, the GI50 in test [19] is 40.1 µM (inactive); in test [20], 38.4 µM (inactive).
Take `O=C1Nc2ccccc2/C1=N/NC(=S)NCc1ccccn1`: the GI50 is 0.355 µM (active) in test [1]; 2.25 µM (inactive) in test [2]; 0.2 µM (active) in test [3]; < 0.01 µM (active) in [4]; 0.294 µM (active) in test [5]; < 0.01 µM (active) in test [6]. The GI50 is 6.14 µM (inactive) in test [7]; < 0.01 µM (active) in [8]; 0.0721 µM (active) in [9]; 0.172 µM (active) in test [10]; 1.33 µM (inactive) in [11]; 10.5 µM (inactive) in test [12]. The GI50 in test [13] was < 0.01 µM (active); in test [14] it was 0.507 µM (active); in test [15], 0.366 µM (active); in test [16], 1.27 µM (inactive); in [17], 0.678 µM (active); in test [18], 0.454 µM (active). For the same molecule, the figures for the GI50 in [19] and in test [20] were 0.126 µM (active) and 0.0724 µM (active), respectively.
On to `COc1cccc(CCN2CCN(CCCc3ccccc3)CC2)c1`, for which the GI50 in test [1] is 63.8 µM (inactive); in test [2] it was 61 µM (inactive); in test [3], > 100 µM (inactive); in test [4] it was > 100 µM (inactive); in [5] it was > 100 µM (inactive); in [6], 53.7 µM (inactive). Also, the GI50 is > 100 µM (inactive) in test [7]; 32.1 µM (inactive) in test [8]; > 100 µM (inactive) in test [9]; 78 µM (inactive) in [10]; 51.1 µM (inactive) in test [11]; > 100 µM (inactive) in [12]. Besides, the GI50 was 32.6 µM (inactive) in test [13]; 43 µM (inactive) in test [14]; > 100 µM (inactive) in test [15]; > 100 µM (inactive) in test [16]; > 100 µM (inactive) in test [17]; 63.1 µM (inactive) in test [18]. Further, the GI50 in [19] and in [20] was > 100 µM (inactive) throughout.
Regarding `COC1=C(OC)C23CCc4ccc(OC)c(O)c4C2(CCN3)CC1=O` (stereo not given), the GI50 in [1], in [2], in [3], in test [4], in test [5] and in test [6] was > 100 µM (inactive) each time. Further, the GI50 in test [7], in [8], in test [9], in test [10], in [11] and in [12] was > 100 µM (inactive) in each case. Moreover, the GI50 in [13], in test [14], in [15], in [16], in [17] and in test [18] was > 100 µM (inactive) each time. In addition, the GI50 in [19] and in [20] was > 100 µM (inactive) throughout.
With `NC(=O)c1ncn(C2OC(CO)C(O)C2O)c1NC=O` (stereo not given), the GI50 in test [1], in test [2], in test [3], in test [4], in [5] and in test [6] was > 100 µM (inactive) throughout. In addition, the GI50 in [7], in test [8], in test [9], in [10], in test [11] and in test [12] was > 100 µM (inactive) in each case. For the same molecule, the GI50 in test [13], in test [14], in test [15], in test [16], in test [17] and in test [18] was > 100 µM (inactive) in each case. Besides, the GI50 in test [19] and in test [20] was > 100 µM (inactive) in each case.
Turning to `C[N+](C)(C)C(Cc1c[nH]c(=S)[nH]1)C(=O)O` (stereo not given), the GI50 in [1], in test [2], in test [3], in test [4], in test [5] and in test [6] was > 100 µM (inactive) in each case. Further, the GI50 in [7], in test [8], in test [9], in test [10], in test [11] and in test [12] was > 100 µM (inactive) throughout. Moreover, the GI50 in test [13], in test [14], in test [15], in [16], in [17] and in [18] was > 100 µM (inactive) each time. The GI50 in test [19] and in test [20] was > 100 µM (inactive) each time.
For `CCCCCCCCCCCCOP(=O)(O)OP(=O)(O)OCC1OC(n2ccc(N)nc2=O)CC1O` (stereo not given), the GI50 in [1], in test [2], in test [3], in test [4], in [5] and in test [6] was > 100 µM (inactive) each time. The GI50 in [7], in [8], in test [9], in test [10], in test [11] and in test [12] was > 100 µM (inactive) in each case. In addition, the GI50 in [13] is > 100 µM (inactive); in test [14], > 100 µM (inactive); in test [15] it was > 100 µM (inactive); in test [16] it was > 100 µM (inactive); in test [17], > 100 µM (inactive); in test [18], 95.9 µM (inactive). The GI50 in test [19] and in [20] was > 100 µM (inactive) in each case.
